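Interpolation was linear, between the two tested concentrations surrounding the appropriate level; five concentrations were tested over 48 hours in 96-well plates. The concentration for 50% growth inhibition is given as GI50. TGI: total growth inhibition.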
Key:
Experiment in all cases: NCI-60 cell line screen, 48 h; in the data active = GI50 below about 0.43 µM; inactive = the rest
HOP-92 NSCLC = tested on: HOP-92 NSCLC
EKVX NSCLC = tested on: EKVX NSCLC
UACC-62 melanoma = tested on: UACC-62 melanoma
MDA-MB-435 = tested on: MDA-MB-435
NCI-H522 lung = tested on: NCI-H522 lung
U251 CNS = tested on: U251 CNS
SR leukemia = tested on: SR leukemia
CCRF-CEM leukemia = tested on: CCRF-CEM leukemia
UO-31 renal = tested on: UO-31 renal
COLO 205 colon = tested on: COLO 205 colon
DU-145 prostate = tested on: DU-145 prostate
A498 renal = tested on: A498 renal
IGROV1 ovarian = tested on: IGROV1 ovarian
LOX IMVI melanoma = tested on: LOX IMVI melanoma
MOLT-4 leukemia = tested on: MOLT-4 leukemia
HL-60(TB) leukemia = tested on: HL-60(TB) leukemia
786-0 renal = tested on: 786-0 renal
UACC-257 melanoma = tested on: UACC-257 melanoma
PC-3 prostate = tested on: PC-3 prostate
SK-MEL-28 melanoma = tested on: SK-MEL-28 melanoma
K-562 leukemia = tested on: K-562 leukemia
T-47D breast = tested on: T-47D breast
NCI-H23 lung = tested on: NCI-H23 lung
ACHN renal = tested on: ACHN renal
SK-MEL-5 melanoma = tested on: SK-MEL-5 melanoma
SK-MEL-2 melanoma = tested on: SK-MEL-2 melanoma
HCT-116 colon = tested on: HCT-116 colon
RPMI-8226 leukemia = tested on: RPMI-8226 leukemia
SW-620 colon = tested on: SW-620 colon
HOP-62 NSCLC = tested on: HOP-62 NSCLC
MALME-3M melanoma = tested on: MALME-3M melanoma
OVCAR-3 ovarian = tested on: OVCAR-3 ovarian
BT-549 breast = tested on: BT-549 breast
TK-10 renal = tested on: TK-10 renal
SF-539 CNS = tested on: SF-539 CNS
SN12C renal = tested on: SN12C renal
HCT-15 colon = tested on: HCT-15 colon
OVCAR-5 ovarian = tested on: OVCAR-5 ovarian
M14 melanoma = tested on: M14 melanoma
MDA-MB-231 breast = tested on: MDA-MB-231 breast
SF-268 CNS = tested on: SF-268 CNS
CAKI-1 renal = tested on: CAKI-1 renal
SNB-75 CNS = tested on: SNB-75 CNS
SK-OV-3 ovarian = tested on: SK-OV-3 ovarian
OVCAR-4 ovarian = tested on: OVCAR-4 ovarian
RXF 393 renal = tested on: RXF 393 renal
SNB-19 CNS = tested on: SNB-19 CNS
HCC-2998 colon = tested on: HCC-2998 colon
SF-295 CNS = tested on: SF-295 CNS

CCCCCCCCCCCCC/C=C/[C@H]1[C@@H](C(=O)OC)N1S(=O)c1ccc(C)cc1 (stereo not given in full)
81300 nM: TGI (HL-60(TB) leukemia)
> 100000 nM: TGI (HOP-92 NSCLC) | TGI (EKVX NSCLC) | TGI (UACC-62 melanoma) | TGI (MDA-MB-435) | TGI (NCI-H522 lung) | TGI (U251 CNS) | TGI (SR leukemia) | TGI (CCRF-CEM leukemia) | TGI (UO-31 renal) | TGI (COLO 205 colon) | TGI (DU-145 prostate) | TGI (A498 renal) | TGI (IGROV1 ovarian) | TGI (LOX IMVI melanoma) | TGI (MOLT-4 leukemia) | TGI (786-0 renal) | TGI (UACC-257 melanoma) | TGI (PC-3 prostate) | TGI (SK-MEL-28 melanoma) | TGI (K-562 leukemia) | TGI (T-47D breast) | TGI (NCI-H23 lung) | TGI (ACHN renal) | TGI (SK-MEL-5 melanoma) | TGI (SK-MEL-2 melanoma) | TGI (HCT-116 colon) | TGI (RPMI-8226 leukemia) | TGI (SW-620 colon) | TGI (HOP-62 NSCLC) | TGI (MALME-3M melanoma) | TGI (OVCAR-3 ovarian) | TGI (BT-549 breast) | TGI (TK-10 renal)

Cc1nnc([S-])o1.[Au+].c1ccc([PH+](c2ccccc2)c2ccccc2)cc1
2800 nM: TGI (CAKI-1 renal)
> 100000 nM: TGI (SR leukemia) | TGI (K-562 leukemia)
2700 nM: TGI (UACC-62 melanoma)
3010 nM: TGI (HCT-116 colon)
3080 nM: TGI (HCT-15 colon) | TGI (ACHN renal)
3270 nM: TGI (OVCAR-5 ovarian) | TGI (HCC-2998 colon)
2030 nM: TGI (NCI-H522 lung)
3530 nM: TGI (HOP-62 NSCLC)
2940 nM: TGI (SK-MEL-5 melanoma)
3110 nM: TGI (MDA-MB-231 breast) | TGI (UACC-257 melanoma)
2980 nM: TGI (SNB-19 CNS) | TGI (OVCAR-3 ovarian)
2950 nM: TGI (OVCAR-4 ovarian) | TGI (BT-549 breast)
3000 nM: TGI (LOX IMVI melanoma) | TGI (786-0 renal)
2820 nM: TGI (IGROV1 ovarian)
2990 nM: TGI (SF-539 CNS)
2510 nM: TGI (RXF 393 renal)
3070 nM: TGI (SN12C renal) | TGI (PC-3 prostate)
2600 nM: TGI (SNB-75 CNS)
3340 nM: TGI (M14 melanoma)
3240 nM: TGI (EKVX NSCLC) | TGI (SK-MEL-2 melanoma)
3310 nM: TGI (SF-268 CNS)
9120 nM: TGI (HL-60(TB) leukemia)
3500 nM: TGI (SF-295 CNS)
3260 nM: TGI (DU-145 prostate)
3030 nM: TGI (HOP-92 NSCLC)
4170 nM: TGI (SK-OV-3 ovarian)
2930 nM: TGI (A498 renal)
4930 nM: TGI (T-47D breast)
inactive: GI50 (SF-539 CNS) 1630 nM | GI50 (HOP-92 NSCLC) 1640 nM | GI50 (EKVX NSCLC) 1810 nM | GI50 (UACC-62 melanoma) 1350 nM | GI50 (SN12C renal) 1670 nM | GI50 (HCT-15 colon) 1490 nM | GI50 (OVCAR-5 ovarian) 1820 nM | GI50 (MDA-MB-435) 1620 nM | GI50 (NCI-H522 lung) 595 nM | GI50 (U251 CNS) 1500 nM | GI50 (SR leukemia) 1210 nM | GI50 (UO-31 renal) 1660 nM | GI50 (M14 melanoma) 1790 nM | GI50 (DU-145 prostate) 1750 nM | GI50 (MDA-MB-231 breast) 1680 nM | GI50 (A498 renal) 1570 nM | GI50 (IGROV1 ovarian) 1470 nM | GI50 (SF-268 CNS) 1620 nM | GI50 (LOX IMVI melanoma) 1630 nM | GI50 (HL-60(TB) leukemia) 2990 nM | GI50 (786-0 renal) 1640 nM | GI50 (UACC-257 melanoma) 1570 nM | GI50 (PC-3 prostate) 1590 nM | GI50 (SK-MEL-28 melanoma) 1510 nM | GI50 (K-562 leukemia) 2380 nM | GI50 (T-47D breast) 1870 nM | GI50 (ACHN renal) 1710 nM | GI50 (CAKI-1 renal) 1470 nM | GI50 (SK-MEL-5 melanoma) 1550 nM | GI50 (SNB-75 CNS) 1320 nM | GI50 (SK-MEL-2 melanoma) 1720 nM | GI50 (HCT-116 colon) 1600 nM | GI50 (SK-OV-3 ovarian) 2280 nM | GI50 (OVCAR-4 ovarian) 1590 nM | GI50 (RXF 393 renal) 1240 nM | GI50 (SNB-19 CNS) 1610 nM | GI50 (HOP-62 NSCLC) 1870 nM | GI50 (MALME-3M melanoma) 1600 nM | GI50 (OVCAR-3 ovarian) 1610 nM | GI50 (HCC-2998 colon) 1820 nM | GI50 (BT-549 breast) 1580 nM | GI50 (SF-295 CNS) 1890 nM | GI50 (TK-10 renal) 1800 nM
3060 nM: TGI (MALME-3M melanoma)
3020 nM: TGI (MDA-MB-435) | TGI (UO-31 renal)
3210 nM: TGI (TK-10 renal)
2860 nM: TGI (U251 CNS) | TGI (SK-MEL-28 melanoma)
